According to article PMC10354055, “An optimized Nurr1 agonist provides disease-modifying effects in Parkinson’s disease models” (Nature Communications, 2023):
“And” between values parts separate entries of the source, which are not always exact repeats. Equal entries are not always repeated.

How the values were obtained:
N27-A cells [1] = assay: Cell viability, MTT reduction, MPP+-treated N27-A cells; type: cell-based, rat; settings: Fig. 2a, CQ 100 µM, 4A7C-301 1 µM
[2] = system: AAV-αSyn-induced male mice; assay: Pole test, AAV-αSyn-induced PD model mice; type: in vivo, mouse; settings: αSynWT and αSynA53T mice; CQ 40, 4A7C-301 5 mg/kg/day i.p.
Excerpt: (§1) Adeno-associated viruses (AAVs) expressing GFP only or αSyn (wild-type or A53T) were kindly provided by Dr. Yoon Seong Kim from the University of Central Florida. Recombinant AAV vectors were produced using modified pAAV-IRES-hrGFP (Agilent) to express wild-type and mutant human αSyn under control of the CMV promoter. Viral particles (AAV2) were produced at the University of Iowa Viral Vector Core according to standard operating procedures (https://medicine.uiowa.edu/vectorcore/). […] AAV vectors were delivered into the substantia nigra unilaterally by stereotaxic surgery.
Mice were trained to descend a vertical metal rod wrapped with rough tape (80 cm high, 12 mm diameter) once per day for 2 days, and then the baseline was measured before the pole test (3 days before the MPTP injection or the first pole test at week 2). Mice were placed head-upward on the pole and total descent time was recorded.

MPTP-induced male mice = assay: Dopamine ELISA in SN and STR, MPTP-induced mice; type: in vivo, mouse; settings: for DA: individual animals
Procedure: MPTP (Sigma-Aldrich) was intraperitoneally (i.p.) injected (30 mg/kg) for 5 days (Day 1-5). […] To test dyskinetic involuntary behavior, an L-DOPA injected group was included, which received 50 mg/kg of L-DOPA and 15 mg/kg of benserazide (Sigma-Aldrich) (i.p.) for 16 days (Day 1–16). All compounds were administered 6 h post-MPTP injection to avoid any effect of compounds on the MPTP metabolism in the brain. Motor and non-motor related behavior tests were performed on the following days as described in Fig. 4a in an assessor- and observer-blinded fashion. Pre-training and baseline setup for motor-related behaviors were performed 3 days prior to the injections. Mice were sacrificed and subjected to immunohistochemistry. Mice were housed at the Animal Care Facilities of McLean Hospital under a 12-h light/12-h dark cycle, ambient temperature and humidity. Animals were handled in accordance with McLean Hospital’s Institutional Animal Care and Use Committee (Protocol #: 2015N000002) and followed National Institutes of Health guidelines.
For MPTP-induced mice, the left hemisphere of each group (n = 5) was used for analysis and compared to the vehicle-treated group (VEH). For AAV-αSyn-injected mouse model, the viral vector injected side (left hemisphere; ipsilateral) of each group (n = 3) was compared to the non-injected side (right hemisphere; contralateral).

Nurr1-LBD = Nurr1-LBD (Homo sapiens, UniProt P43354); assay: [3H]-CQ radioligand competition binding assay
Nurr1-LBD, sequence (P43354 360-595 limits assumed, species assumed): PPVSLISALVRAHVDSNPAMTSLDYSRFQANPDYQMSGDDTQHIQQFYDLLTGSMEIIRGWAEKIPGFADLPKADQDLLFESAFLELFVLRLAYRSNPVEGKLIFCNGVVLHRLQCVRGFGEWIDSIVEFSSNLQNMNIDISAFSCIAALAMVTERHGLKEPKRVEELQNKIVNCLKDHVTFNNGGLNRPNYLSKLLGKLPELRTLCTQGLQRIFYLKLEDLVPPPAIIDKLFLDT
Procedure: Saturation and competition assays were performed as previously described. For saturation assay, 0.2 µM of Nurr1-LBD and 125-10,000 nM of [^3H]-CQ were incubated in binding buffer (20 mM sodium acetate buffer (pH 5.2)) at 4 °C overnight. […] Assay mixtures were applied to GF/B filters (Brandel Inc.) to capture Nurr1-LBD bounded ligands. […] All graphs and IC50 values were generated using the non-linear regression program in GraphPad Prism version 8.0.2.

N27-A cells [3] = assay: Mitochondrial activity assay, Seahorse XFp, N27-A cells; type: cell-based, rat; design: Seahorse time trace (OCR): unit not given here; settings: for OCR changes after FCCP injection: MPP+ co-treatment, individual replicates (Supplementary Figure S1o); for Seahorse time trace (OCR) / Basal respiration / Maximal respiration / ATP turnover: replicates; for Basal respiration: Fig. S1l; for Basal respiration / Maximal respiration / ATP turnover: with MPP+; for Maximal respiration: Fig. S1m; for ATP turnover: Fig. S1n
Procedure: Mitochondrial activity was measured using the Seahorse XFp analyzer (Agilent Technologies) according to the manufacturer’s instruction. Briefly, cells were plated onto wells of a XFp cell culture miniplate and incubated in a 37 °C incubator overnight. The assay was performed after cells were equilibrated for 1 h in XF assay medium supplemented with 10 mM D-glucose, 5 mM sodium pyruvate, and 2 mM glutamax in a non-CO2 incubator. Mitochondrial activity was monitored through sequential injections of 1 μM oligomycin, 2 μM carbonyl cyanide-4 (trifluoromethoxy) phenylhydrazone (FCCP) and 0.5 μM rotenone/antimycin A to calculate basal respiration (= baseline oxygen consumption rate (OCR)−rotenone/antimycin A OCR), maximal respiration (= FCCP OCR−rotenone/antimycin A OCR), ATP turnover (= baseline OCR−oligomycin OCR), and OCR changes after FCCP injection (= FCCP OCR−oligomycin OCR). Each plotted value was normalized to total protein quantified using a Bradford protein assay (Bio-Rad) and analyzed using the Seahorse WAVE Desktop software (Agilent Technologies).

[4] = system: AAV-αSyn-induced male mice; assay: Rotarod, AAV-αSyn-induced PD model mice; type: in vivo, mouse; settings: αSynWT and αSynA53T mice; CQ 40, 4A7C-301 5 mg/kg/day i.p.
Excerpt: as §1
Mice were pre-trained on an automated 5-lane rotarod unit (10 rpm, 3 min) for 2 days and the baseline was measured (10 rpm, 90 sec) before the rotarod test (3 days before the MPTP injection or the first rotarod test at week 2). Rotarod measurements were performed using an accelerating protocol, accelerated smoothly from 2 to 30 rpm for 5 min. Time on the rotating rod was measured automatically by placing a trip switch under the floor beneath the rotating drum.

CCN1CCN(c2cc(N3CCN(CC)CC3)nc(NCCNc3ccnc4cc(Cl)ccc34)n2)CC1 [4A7C-301, N^1-(4,6-bis(4-ethylpiperazin-1-yl)pyrimidin-2-yl)-N^2-(7-chloroquinolin-4-yl)ethane-1,2-diamine]
MTT reduction (%) (N27-A cells [1]; Control): 65.2632% and 62.1053% and 64.2105% and 61.0526%
MTT reduction (%) (N27-A cells [1]; Nurr1 KD): 30.9278% and 29.8969% and 34.0206%
MTT reduction (%) (N27-A cells [1]; Nurr1 OE): 86.5979% and 95.8763% and 87.6289% and 83.5052%
motor deficits, pole test (in words) [2]: improved motor deficits
DA levels in the SN (in words) (MPTP-induced male mice): significantly restored
DA levels in the STR (in words) (MPTP-induced male mice): significantly restored
DA (MPTP-induced male mice; Supplementary Figure S10b): 62.619 pg/mL and 53.876 pg/mL and 49.863 pg/mL and 62.002 pg/mL and 54.392 pg/mL
DA (MPTP-induced male mice; Supplementary Figure S10c): 384.546 pg/mL and 562.262 pg/mL and 361.203 pg/mL and 377.923 pg/mL and 404.591 pg/mL
% of Specific binding (Nurr1-LBD; Fig. 1h, competitor conc. 0.0001 (µM)): 97.5500% and 87.3600% and 114.0900%
% of Specific binding (Nurr1-LBD; Fig. 1h, competitor conc. 0.001 (µM)): 93.3315% and 98.5361% and 111.1323%
% of Specific binding (Nurr1-LBD; Fig. 1h, competitor conc. 0.01 (µM)): 98.5241% and 100.1201% and 98.1018%
% of Specific binding (Nurr1-LBD; Fig. 1h, competitor conc. 0.1 (µM)): 94.8655% and 104.0393% and 99.1513%
% of Specific binding (Nurr1-LBD; Fig. 1h, competitor conc. 1 (µM)): 96.7105% and 99.4183% and 101.5113%
% of Specific binding (Nurr1-LBD; Fig. 1h, competitor conc. 10 (µM)): 93.5241% and 103.1201% and 98.1018%
% of Specific binding (Nurr1-LBD; Fig. 1h, competitor conc. 100 (µM)): 102.0642% and 94.9839% and 98.3253%
% of Specific binding (Nurr1-LBD; Fig. 1h, competitor conc. 1000 (µM)): 95.6857% and 99.8470% and 98.1514%
% of Specific binding (Nurr1-LBD; Fig. 1h, competitor conc. 10000 (µM)): 97.6484% and 92.6051% and 102.8033%
% of Specific binding (Nurr1-LBD; Fig. 1h, competitor conc. 100000 (µM)): 94.7542% and 97.7292% and 100.6669%
% of Specific binding (Nurr1-LBD; Fig. 1h, competitor conc. 1000000 (µM)): 94.8500% and 98.0088% and 99.1887%
IC50 (Nurr1-LBD; competition with [3H]-CQ, Fig. 1h): 0.0482 µM and 0.05 µM
binding affinity for Nurr1-LBD relative to CQ (Nurr1-LBD; from radioligand and TR-FRET IC50s): 20 fold and ~ 20 fold
OXPHOS capacity reduced by MPP+ (in words) (N27-A cells [3]; CQ 100 µM, 4A7C-301 1 µM): efficiently restored
OCR changes after FCCP injection (N27-A cells [3]; Control N27-A cells): 22.93 pmol/min/µg protein and 28.37 pmol/min/µg protein and 27.04 pmol/min/µg protein and 22.31 pmol/min/µg protein
Seahorse time trace (OCR) (N27-A cells [3]; Fig. S1j/k, Control + MPP+, time 2 min): 28.88 and 28.2 and 18.44 and 14.94
Seahorse time trace (OCR) (N27-A cells [3]; Fig. S1j/k, Control + MPP+, time 8 min): 28.86 and 28.61 and 14.72 and 11.2
Seahorse time trace (OCR) (N27-A cells [3]; Fig. S1j/k, Control + MPP+, time 15 min): 28.17 and 28.8 and 13.75 and 10.54
Seahorse time trace (OCR) (N27-A cells [3]; Fig. S1j/k, Control + MPP+, time 21 min): 9.43 and 9.81 and 3.69 and 2.8
Seahorse time trace (OCR) (N27-A cells [3]; Fig. S1j/k, Control + MPP+, time 28 min): 9.7 and 9.86 and 4.4 and 3.39
Seahorse time trace (OCR) (N27-A cells [3]; Fig. S1j/k, Control + MPP+, time 34 min): 9.59 and 9.6 and 4.42 and 3.28
Seahorse time trace (OCR) (N27-A cells [3]; Fig. S1j/k, Control + MPP+, time 41 min): 32.36 and 38.18 and 30.73 and 25.11
Seahorse time trace (OCR) (N27-A cells [3]; Fig. S1j/k, Control + MPP+, time 47 min): 29.9 and 35.04 and 27.29 and 22.64
Seahorse time trace (OCR) (N27-A cells [3]; Fig. S1j/k, Control + MPP+, time 54 min): 29.63 and 34.46 and 27.32 and 22.95
Seahorse time trace (OCR) (N27-A cells [3]; Fig. S1j/k, Control + MPP+, time 61 min): 9.52 and 9.47 and 4.93 and 3.5
Seahorse time trace (OCR) (N27-A cells [3]; Fig. S1j/k, Control + MPP+, time 67 min): 9.83 (2×) and 4.57 and 3.36
Seahorse time trace (OCR) (N27-A cells [3]; Fig. S1j/k, Control + MPP+, time 74 min): 9.8 and 10.29 and 4.41 and 3.28
Seahorse time trace (OCR) (N27-A cells [3]; Fig. S1j, Nurr1 OE + MPP+, time 2 min): 21.96 and 38.12 and 34.89 and 26.1
Seahorse time trace (OCR) (N27-A cells [3]; Fig. S1j, Nurr1 OE + MPP+, time 8 min): 20.5 and 33.32 and 33.36 and 24.15
Seahorse time trace (OCR) (N27-A cells [3]; Fig. S1j, Nurr1 OE + MPP+, time 15 min): 22.25 and 31.43 and 31.49 and 19.26
Seahorse time trace (OCR) (N27-A cells [3]; Fig. S1j, Nurr1 OE + MPP+, time 21 min): 7.36 and 10.03 and 6.69 and 7.02
Seahorse time trace (OCR) (N27-A cells [3]; Fig. S1j, Nurr1 OE + MPP+, time 28 min): 8.04 and 9.23 and 7.6 and 8.44
Seahorse time trace (OCR) (N27-A cells [3]; Fig. S1j, Nurr1 OE + MPP+, time 34 min): 7.79 and 8.85 and 8.38 and 8.58
Seahorse time trace (OCR) (N27-A cells [3]; Fig. S1j, Nurr1 OE + MPP+, time 41 min): 58.47 and 42.11 and 44.82 and 40.84
Seahorse time trace (OCR) (N27-A cells [3]; Fig. S1j, Nurr1 OE + MPP+, time 47 min): 58.99 and 40.77 and 43.63 and 37.36
Seahorse time trace (OCR) (N27-A cells [3]; Fig. S1j, Nurr1 OE + MPP+, time 54 min): 57.85 and 39.58 and 42.17 and 36.47
Seahorse time trace (OCR) (N27-A cells [3]; Fig. S1j, Nurr1 OE + MPP+, time 61 min): 7.42 and 11.41 and 5.09 and 5.68
Seahorse time trace (OCR) (N27-A cells [3]; Fig. S1j, Nurr1 OE + MPP+, time 67 min): 7.08 and 11.69 and 6.18 and 6.3
Seahorse time trace (OCR) (N27-A cells [3]; Fig. S1j, Nurr1 OE + MPP+, time 74 min): 8.5 and 11.39 and 6.45 and 6.32
Seahorse time trace (OCR) (N27-A cells [3]; Fig. S1k, Nurr1 KD + MPP+, time 2 min): 9.8 and 10.5 and 12.93 and 13.97
Basal respiration (N27-A cells [3]; Control cells): 19.37 pmol/min/µg protein and 19.34 pmol/min/µg protein and 12.02 pmol/min/µg protein and 10.67 pmol/min/µg protein
Basal respiration (N27-A cells [3]; Nurr1 KD cells): 6.31 pmol/min/µg protein and 5.78 pmol/min/µg protein and 7.24 pmol/min/µg protein and 8.35 pmol/min/µg protein
Basal respiration (N27-A cells [3]; Nurr1 OE cells): 19.17 pmol/min/µg protein and 26.73 pmol/min/µg protein and 28.79 pmol/min/µg protein and 22.43 pmol/min/µg protein
Maximal respiration (N27-A cells [3]; Control cells): 22.85 pmol/min/µg protein and 28.71 pmol/min/µg protein and 26.31 pmol/min/µg protein and 21.83 pmol/min/µg protein
Maximal respiration (N27-A cells [3]; Nurr1 KD cells): 28.48 pmol/min/µg protein and 29.74 pmol/min/µg protein and 27.18 pmol/min/µg protein and 19.97 pmol/min/µg protein
Maximal respiration (N27-A cells [3]; Nurr1 OE cells): 51.91 pmol/min/µg protein and 33.72 pmol/min/µg protein and 39.72 pmol/min/µg protein and 35.16 pmol/min/µg protein
ATP turnover (N27-A cells [3]; Control cells): 19.25 pmol/min/µg protein and 18 pmol/min/µg protein and 12.75 pmol/min/µg protein and 12.14 pmol/min/µg protein
ATP turnover (N27-A cells [3]; Nurr1 KD cells): 5.27 pmol/min/µg protein and 5.05 pmol/min/µg protein and 6.03 pmol/min/µg protein and 7.23 pmol/min/µg protein
ATP turnover (N27-A cells [3]; Nurr1 OE cells): 17.88 pmol/min/µg protein and 29.57 pmol/min/µg protein and 28.2 pmol/min/µg protein and 20.09 pmol/min/µg protein
OCR changes after FCCP injection (N27-A cells [3]; Nurr1 KD N27-A cells): 27.63 pmol/min/µg protein and 29.1 pmol/min/µg protein and 27.24 pmol/min/µg protein and 20.05 pmol/min/µg protein
OCR changes after FCCP injection (N27-A cells [3]; Nurr1 OE N27-A cells): 50.72 pmol/min/µg protein and 34.26 pmol/min/µg protein and 38.13 pmol/min/µg protein and 33.82 pmol/min/µg protein
motor deficits, rotarod (latency to fall) (in words) [4]: improved motor deficits
